Data taken from patent US20260226073A1 (AURIGENE ONCOLOGY LIMITED, priority 2023, published 2026).

Experiments:
[1] = biological target: T1, human recombinant CBL-b (human Biotin CBL-b recombinant protein a.a. 39-426) (Homo sapiens, UniProt Q13191); assay: Biochemical assay for CBL-b inhibition (ligand displacement TR-FRET); assay type: binding; settings: 50 nM CBL-b, 0.3 μM Bodipy FL-Probe, read-out: IC50 (CBL-b inhibition, group)
T1 construct: human Biotin CBL-b recombinant protein a.a; 39-426; Biotin (biotinylated); made in house
T1 sequence (Q13191 39-426): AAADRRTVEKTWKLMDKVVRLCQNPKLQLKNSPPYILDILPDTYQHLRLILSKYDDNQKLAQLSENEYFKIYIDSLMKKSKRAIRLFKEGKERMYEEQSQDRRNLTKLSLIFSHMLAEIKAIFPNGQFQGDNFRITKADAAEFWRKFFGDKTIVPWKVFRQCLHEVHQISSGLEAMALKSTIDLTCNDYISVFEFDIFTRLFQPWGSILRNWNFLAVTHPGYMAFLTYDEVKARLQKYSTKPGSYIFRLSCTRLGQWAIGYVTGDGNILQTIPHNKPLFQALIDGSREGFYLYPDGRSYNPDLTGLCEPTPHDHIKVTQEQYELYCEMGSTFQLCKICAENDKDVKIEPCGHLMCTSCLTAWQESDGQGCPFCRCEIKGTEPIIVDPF
Procedure, shortened: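 Biotinylated CBL-b (a.a. 39-426, 50 nM final) pre-incubated with compound 60 min at RT in HEPES/NaCl/Triton/BSA/TCEP buffer, then Bodipy FL probe (0.3 μM final) 60 min, then terbium-streptavidin 60 min. TR-FRET read at 665/615 nm; IC50 and % max inhibition from sigmoidal fits.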

[2] = tested on: NFAT signaling pathway in Jurkat NFAT reporter cells; assay: Jurkat NFAT reporter assay; assay type: cell-based; settings: Homo sapiens, 30 min with compound, then soluble anti-human CD3/CD28 antibody for 6 hours, luciferase readout, read-out: EC50 (Group)
Procedure, shortened: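 Jurkat cells bearing an NFAT-RE-driven luciferase reporter (1×10^5 per well) preincubated with Cbl-b inhibitor for 30 min, then stimulated 6 h with soluble anti-CD3/CD28. Luminescence read with Bio-Glo; values are fold change over anti-CD3/CD28-stimulated cells without inhibitor.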

| IC50 [1] [nM] | EC50 [2] [nM] | Compound |
| --- | --- | --- |
| < 80 | < 300 | CC(NCc1cc(Cl)nc(N2Cc3ccc(C4(Cc5nncn5C)COC4)cc3C2=O)c1)C1CC1 (centres unmarked) [Compound 131, 2-(6-Chloro-4-(((1-cyclopropylethyl)amino)methyl)pyridin-2-yl)-6-(3-((4-methyl-4H-1,2,4-triazol-3-yl)methyl)oxetan-3-yl)isoindolin-1-one] |
| < 80 | < 300 | CCCNCc1cc(C)nc(N2Cc3ccc(-c4ccc(F)cc4-c4nncn4C)cc3C2=O)c1 [Compound 323, 6-(4-Fluoro-2-(4-methyl-4H-1,2,4-triazol-3-yl)phenyl)-2-(6-methyl-4-((propyl-amino)methyl)pyridin-2-yl)isoindolin-1-one] |
| 300 to 5000 | 1000 to 10000 | C[C@H]1CCCN(Cc2cccc(N3Cc4ccc(C5(Cc6nncn6C)COC5)cc4C3=O)c2)C1 [Compound 8, (S)-6-(3-((4-Methyl-4H-1,2,4-triazol-3-yl)methyl)oxetan-3-yl)-2-(3-((3-methyl-piperidin-1-yl)methyl)phenyl)isoindolin-1-one] |
| < 80 | < 300 | Cc1cc([C@H](C)NC2CCCC2)cc(N2Cc3ccc(-c4ccc(Cl)cc4-c4nncn4C)cc3C2=O)n1 (single isomer, unassigned) [Compound 125, 6-(4-Chloro-2-(4-methyl-4H-1,2,4-triazol-3-yl)phenyl)-2-(4-(1-(cyclopentyl-amino)ethyl)-6-methylpyridin-2-yl)isoindolin-1-one] |
| 80 to 300 | 300 to 1000 | C[C@H]1CCCN(Cc2cc(C3CC3)cc(N3Cc4ccc(C5(Cc6nncn6C)COC5)cc4C3=O)c2)C1 [Compound 7, (S)-2-(3-Cyclopropyl-5-((3-methylpiperidin-1-yl)methyl)phenyl)-6-(3-((4-methyl-4H-1,2,4-triazol-3-yl)methyl)oxetan-3-yl)isoindolin-1-one] |
| < 80 | 1000 to 10000 | Cc1ccc(-c2ccc3c(c2)C(=O)N(c2cc(CNCC4CC4)cc(C)n2)C3)c(-c2nncn2C)c1 [Compound 277, 2-(4-(((Cyclopropylmethyl)amino)methyl)-6-methylpyridin-2-yl)-6-(4-methyl-2-(4-methyl-4H-1,2,4-triazol-3-yl)phenyl)isoindolin-1-one] |
| < 80 | < 300 | C[C@H](NCC1CC1)c1cc(Cl)nc(N2Cc3ccc(-c4ccc(Cl)cc4-c4nncn4C)cc3C2=O)c1 (single isomer, unassigned) [Compound 111, 6-(4-Chloro-2-(4-methyl-4H-1,2,4-triazol-3-yl)phenyl)-2-(6-chloro-4-(1-((cyclo-propylmethyl)amino)ethyl)pyridin-2-yl)isoindolin-1-one] |
| < 80 | < 300 | C[C@@H]1C[C@H](C)CN(Cc2cc(N3Cc4ccc(C5(Cc6nncn6C)CCC5)cc4C3=O)nc(C(F)(F)F)c2)C1 [Compound 82, 2-(4-(((3S,5R)-3,5-Dimethylpiperidin-1-yl)methyl)-6-(trifluoromethyl)pyridin-2-yl)-6-(1-((4-methyl-4H-1,2,4-triazol-3-yl)methyl)cyclobutyl)isoindolin-1-one] |
| < 80 | < 300 | Cc1cc(CNC(C2CC2)C2CC2)cc(N2Cc3ccc(-c4ccc(F)cc4-c4nncn4C)cc3C2=O)n1 [Compound 298, 2-(4-(((Dicyclopropylmethyl)amino)methyl)-6-methylpyridin-2-yl)-6-(4-fluoro-2-(4-methyl-4H-1,2,4-triazol-3-yl)phenyl)isoindolin-1-one] |
| 300 to 5000 | 1000 to 10000 | Cn1cnnc1CC1(c2ccc3c(c2)C(=O)N(c2cc(CN4CC5CC5C4)cc(C(F)(F)F)n2)C3)COC1 (centres unmarked) [Compound 71, 2-(4-((3-Azabicyclo[3.1.0]hexan-3-yl)methyl)-6-(trifluoromethyl)pyridin-2-yl)-6-(3-((4-methyl-4H-1,2,4-triazol-3-yl)methyl)oxetan-3-yl)isoindolin-1-one] |
